Source: PMC10066365, “Nemacol is a small molecule inhibitor of C. elegans vesicular acetylcholine transporter with anthelmintic potential” (Nature Communications, 2023)
Several values for one entry are separate records, joined by “and”; a condition that tells them apart may be missing. Equal entries are not always repeated. Where two headings read alike, the source gives them in different places.

Key:
C. elegans = C. elegans motor phenotype scoring on solid media (Punc/jerky-unc, coiled, paralyzed), wild-type young adults; type: in vivo, Caenorhabditis elegans; conditions: for atypical locomotion (number of animals) / coiled (number of animals) / no phene (number of animals) / paralyzed (number of animals) / any phene: mean % fraction of young adults exhibiting any phenotype (coiled, jerky-Unc or paralyzed): one hour; for atypical locomotion (number of animals) / coiled (number of animals) / no phene (number of animals) / paralyzed (number of animals): young adults, 20 animals per trial, single technical replicate; for any phene: mean % fraction of young adults exhibiting any phenotype (coiled, jerky-Unc or paralyzed): mean of three biological replicates; for EC50: Caenorhabditis elegans, any motor phenotype after 1 h on solid media, ± 95% CI, read-out: C. elegans - motor disruption EC50
rat VAChT = biological target: T1, rat VAChT (Rattus norvegicus, UniProt Q62666); experiment: [3H]Vesamicol competitive radioligand binding, PC12 cells expressing ratVAChT
T1 construct: expressed in transfected cells; host or cells: rat PC12 (PC12 A123.7) cells, stably transfected; shared by Dr. Ali Roghani (Texas Tech University)
T1 sequence (Q62666 1-530): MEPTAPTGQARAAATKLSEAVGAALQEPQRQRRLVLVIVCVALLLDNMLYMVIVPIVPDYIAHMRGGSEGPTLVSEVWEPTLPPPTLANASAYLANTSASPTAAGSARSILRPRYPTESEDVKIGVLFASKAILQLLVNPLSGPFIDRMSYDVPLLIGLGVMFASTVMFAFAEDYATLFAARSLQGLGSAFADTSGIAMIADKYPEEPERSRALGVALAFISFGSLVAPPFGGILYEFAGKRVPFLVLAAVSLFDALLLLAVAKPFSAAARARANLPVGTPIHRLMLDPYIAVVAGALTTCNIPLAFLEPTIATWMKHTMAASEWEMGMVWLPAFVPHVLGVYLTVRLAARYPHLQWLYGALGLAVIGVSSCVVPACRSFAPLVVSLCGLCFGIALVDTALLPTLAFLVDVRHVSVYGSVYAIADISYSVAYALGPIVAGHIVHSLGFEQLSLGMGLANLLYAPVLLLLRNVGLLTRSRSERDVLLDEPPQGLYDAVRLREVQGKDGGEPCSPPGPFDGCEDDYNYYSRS

[1] = test system: Dirofilaria immitis microfilariae; experiment: Dirofilaria immitis microfilariae immobility assay (DiroImager, 72 h); conditions: Dirofilaria immitis microfilariae
Procedure, shortened: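 Motility read after 72 h drug exposure with an image-based high-throughput plate imager, 1% DMSO medium serving as negative control. Missouri-isolate microfilariae, roughly 250 per well, freshly purified and cultured in supplemented RPMI 1640.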

[2] = test system: Dirofilaria immitis L3/L4; experiment: Dirofilaria immitis L3/L4 motility assay (DiroImager, 72 h); conditions: Dirofilaria immitis L4
Pristionchus pacificus = Pristionchus pacificus motor disruption dose-response on solid media, 1 h; conditions: for EC50: Pristionchus pacificus, 1 h, read-out: P. pacificus motor disruption EC50; for mean % any phene: any phenotype (coiled, jerky-Unc or paralyzed) at one hour, mean of three biological replicates; for rep 1 atypical locomotion / rep 1 coiled / rep 1 no phene / rep 1 paralyzed / rep 2 atypical locomotion / rep 2 coiled / rep 2 no phene / rep 2 paralyzed / rep 3 atypical locomotion / rep 3 coiled / rep 3 no phene / rep 3 paralyzed: count of 20 animals per trial, one hour
[3] = [3H]Vesamicol binding, PC12, experiment 1, read-out: expt 1 Ki (M) vs. rat VAChT (PC12)
[4] = [3H]Vesamicol binding, PC12, experiment 2, read-out: expt 2 Ki (M) vs. rat VAChT (PC12)
[5] = [3H]Vesamicol binding, rat VAChT (PC12), mean of 2-3 experiments, read-out: mean Ki
[6] = [3H]Vesamicol displacement, mean, read-out: ratVAChT Ki

c1ccc(N2CCN(C3CCCCCC3)CC2)cc1 [Nemacol-59]
atypical locomotion (number of animals) (C. elegans; 3.75uM): 5 and 4 and 7 and 2 | coiled (number of animals) (C. elegans; 3.75uM): 0 | no phene (number of animals) (C. elegans; 3.75uM): 15 and 16 and 13 | paralyzed (number of animals) (C. elegans; 3.75uM): 0 and 2 | any phene: mean % fraction of young adults exhibiting any phenotype (coiled, jerky-Unc or paralyzed) (C. elegans; 3.75uM): 24.1667% | atypical locomotion (number of animals) (C. elegans; 15uM): 15 and 17 and 14 and 16 and 18 | coiled (number of animals) (C. elegans; 15uM): 0 and 1 and 3 and 2 | no phene (number of animals) (C. elegans; 15uM): 0 and 2 | paralyzed (number of animals) (C. elegans; 15uM): 5 and 3 and 0 | any phene: mean % fraction of young adults exhibiting any phenotype (coiled, jerky-Unc or paralyzed) (C. elegans; 15uM): 98.3333% | atypical locomotion (number of animals) (C. elegans; 60uM): 1 and 4 and 8 and 5 and 3 | coiled (number of animals) (C. elegans; 60uM): 12 and 6 and 4 and 7 | no phene (number of animals) (C. elegans; 60uM): 0 | paralyzed (number of animals) (C. elegans; 60uM): 7 and 10 and 8 and 9 and 11 | EC50 (C. elegans): 5100 ± 500 nM | Ki (rat VAChT; [3]): 1.85e-06 M | Ki (rat VAChT; [4]): 1.68e-06 M | Ki (rat VAChT; [5]): 1.76e-06 M | Ki (rat VAChT; [6]): 1.76e-06 M | % effect (motility), DIROIM MF ([1]; 0.016 µM): 0% | % effect (motility), DIROIM MF ([1]; 0.08 µM): 0% | % effect (motility), DIROIM MF ([1]; 0.4 µM): 0% | % effect (motility), DIROIM MF ([1]; 2 µM): 0% | % effect (motility), DIROIM MF ([1]; 10 µM): 0% | % effect (motility), DIROIM L4 ([2]; 10 µM): 30% | % effect (motility), DIROIM L4 ([2]; 50 µM): 25% | EC50 (Pristionchus pacificus): > 60000 nM | mean % any phene (Pristionchus pacificus; conc 3.75): 0% | rep 1 atypical locomotion (Pristionchus pacificus; conc 3.75): 0 | rep 1 coiled (Pristionchus pacificus; conc 3.75): 0 | rep 1 no phene (Pristionchus pacificus; conc 3.75): 20 | rep 1 paralyzed (Pristionchus pacificus; conc 3.75): 0 | rep 2 atypical locomotion (Pristionchus pacificus; conc 3.75): 0 | rep 2 coiled (Pristionchus pacificus; conc 3.75): 0 | rep 2 no phene (Pristionchus pacificus; conc 3.75): 20 | rep 2 paralyzed (Pristionchus pacificus; conc 3.75): 0 | rep 3 atypical locomotion (Pristionchus pacificus; conc 3.75): 0 | rep 3 coiled (Pristionchus pacificus; conc 3.75): 0 | rep 3 no phene (Pristionchus pacificus; conc 3.75): 20 | rep 3 paralyzed (Pristionchus pacificus; conc 3.75): 0 | mean % any phene (Pristionchus pacificus; conc 15): 0% | rep 1 atypical locomotion (Pristionchus pacificus; conc 15): 0 | rep 1 coiled (Pristionchus pacificus; conc 15): 0 | rep 1 no phene (Pristionchus pacificus; conc 15): 20 | rep 1 paralyzed (Pristionchus pacificus; conc 15): 0 | rep 2 atypical locomotion (Pristionchus pacificus; conc 15): 0 | rep 2 coiled (Pristionchus pacificus; conc 15): 0 | rep 2 no phene (Pristionchus pacificus; conc 15): 20 | rep 2 paralyzed (Pristionchus pacificus; conc 15): 0 | rep 3 atypical locomotion (Pristionchus pacificus; conc 15): 0 | rep 3 coiled (Pristionchus pacificus; conc 15): 0 | rep 3 no phene (Pristionchus pacificus; conc 15): 20 | rep 3 paralyzed (Pristionchus pacificus; conc 15): 0 | mean % any phene (Pristionchus pacificus; conc 60): 5.833% | rep 1 atypical locomotion (Pristionchus pacificus; conc 60): 4 and 2 | rep 1 coiled (Pristionchus pacificus; conc 60): 0 | rep 1 no phene (Pristionchus pacificus; conc 60): 16 and 18 | rep 1 paralyzed (Pristionchus pacificus; conc 60): 0 | rep 2 atypical locomotion (Pristionchus pacificus; conc 60): 0 | rep 2 no phene (Pristionchus pacificus; conc 60): 19 and 20 | rep 2 paralyzed (Pristionchus pacificus; conc 60): 0 | rep 3 atypical locomotion (Pristionchus pacificus; conc 60): 0 | rep 3 coiled (Pristionchus pacificus; conc 60): 0 | rep 3 no phene (Pristionchus pacificus; conc 60): 20 | rep 3 paralyzed (Pristionchus pacificus; conc 60): 0

c1ccc(N2CCN(CC3CCCC3)CC2)cc1 [Nemacol-62]
atypical locomotion (number of animals) (C. elegans; 3.75uM): 0 and 2 | coiled (number of animals) (C. elegans; 3.75uM): 0 and 1 | no phene (number of animals) (C. elegans; 3.75uM): 20 and 17 and 18 | paralyzed (number of animals) (C. elegans; 3.75uM): 0 | any phene: mean % fraction of young adults exhibiting any phenotype (coiled, jerky-Unc or paralyzed) (C. elegans; 3.75uM): 4.167% | atypical locomotion (number of animals) (C. elegans; 15uM): 13 and 10 and 6 and 17 | coiled (number of animals) (C. elegans; 15uM): 0 and 1 and 4 and 3 | no phene (number of animals) (C. elegans; 15uM): 5 and 8 and 13 and 10 and 0 | paralyzed (number of animals) (C. elegans; 15uM): 2 and 0 and 4 | atypical locomotion (number of animals) (C. elegans; 60uM): 0 and 4 and 2 and 1 | coiled (number of animals) (C. elegans; 60uM): 12 and 8 and 15 and 17 and 7 and 5 | no phene (number of animals) (C. elegans; 60uM): 0 | paralyzed (number of animals) (C. elegans; 60uM): 8 and 3 and 2 and 9 and 14 | EC50 (C. elegans): 11200 ± 4400 nM | Ki (rat VAChT; [3]): 2.34e-06 M | Ki (rat VAChT; [4]): 3.34e-06 M | Ki (rat VAChT; [5]): 2.84e-06 M | Ki (rat VAChT; [6]): 2.84e-06 M | % effect (motility), DIROIM MF ([1]; 0.016 µM): 0% | % effect (motility), DIROIM MF ([1]; 0.08 µM): 0% | % effect (motility), DIROIM MF ([1]; 0.4 µM): 0% | % effect (motility), DIROIM MF ([1]; 2 µM): 0% | % effect (motility), DIROIM MF ([1]; 10 µM): 0% | % effect (motility), DIROIM L4 ([2]; 10 µM): 5% | % effect (motility), DIROIM L4 ([2]; 50 µM): 11% | EC50 (Pristionchus pacificus): 35200 ± 7500 nM | mean % any phene (Pristionchus pacificus; conc 3.75): 0% | rep 1 atypical locomotion (Pristionchus pacificus; conc 3.75): 0 | rep 1 coiled (Pristionchus pacificus; conc 3.75): 0 | rep 1 no phene (Pristionchus pacificus; conc 3.75): 20 | rep 1 paralyzed (Pristionchus pacificus; conc 3.75): 0 | rep 2 atypical locomotion (Pristionchus pacificus; conc 3.75): 0 | rep 2 coiled (Pristionchus pacificus; conc 3.75): 0 | rep 2 no phene (Pristionchus pacificus; conc 3.75): 20 | rep 2 paralyzed (Pristionchus pacificus; conc 3.75): 0 | rep 3 atypical locomotion (Pristionchus pacificus; conc 3.75): 0 | rep 3 coiled (Pristionchus pacificus; conc 3.75): 0 | rep 3 no phene (Pristionchus pacificus; conc 3.75): 20 | rep 3 paralyzed (Pristionchus pacificus; conc 3.75): 0 | mean % any phene (Pristionchus pacificus; conc 15): 3.333% | rep 1 coiled (Pristionchus pacificus; conc 15): 0 | rep 1 no phene (Pristionchus pacificus; conc 15): 20 and 19 | rep 1 paralyzed (Pristionchus pacificus; conc 15): 0 | rep 2 atypical locomotion (Pristionchus pacificus; conc 15): 2 and 1 | rep 2 coiled (Pristionchus pacificus; conc 15): 0 | rep 2 no phene (Pristionchus pacificus; conc 15): 18 and 19 | rep 2 paralyzed (Pristionchus pacificus; conc 15): 0 | rep 3 atypical locomotion (Pristionchus pacificus; conc 15): 0 | rep 3 coiled (Pristionchus pacificus; conc 15): 0 | rep 3 no phene (Pristionchus pacificus; conc 15): 20 | rep 3 paralyzed (Pristionchus pacificus; conc 15): 0 | mean % any phene (Pristionchus pacificus; conc 60): 89.1667% | rep 1 atypical locomotion (Pristionchus pacificus; conc 60): 5 and 6 | rep 1 paralyzed (Pristionchus pacificus; conc 60): 11 and 9 | rep 2 atypical locomotion (Pristionchus pacificus; conc 60): 14 and 15 | rep 2 coiled (Pristionchus pacificus; conc 60): 2 and 3 | rep 2 no phene (Pristionchus pacificus; conc 60): 0 | rep 2 paralyzed (Pristionchus pacificus; conc 60): 4 and 2 | rep 3 atypical locomotion (Pristionchus pacificus; conc 60): 15 and 13 | rep 3 no phene (Pristionchus pacificus; conc 60): 5 and 3
